Laboratory results as given in patent US6569878B1, “Substituted 4-amino-thiazol-2-yl compounds as cyclin-dependent kinase inhibitors” (Agouron Pharmaceuticals Inc., priority 1997, dated 2003).

Legend:
[1] = target: T1, human CDK1 (cdc2) and cyclin B (Homo sapiens, UniProt P06493); assay: Inhibition of CDK1(cdc2)/cyclin B histone H1 kinase activity; type: biochemical; conditions: read-out: Ki CDK 1/B
T1 construct: purchased New England Biolabs (Beverly Mass.)
Method in brief: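 CDK1/cyclin B (commercial, or CDK1/GST-cyclin B1 from co-infected insect cells) phosphorylated histone H1 with 25 μM [32/33P]ATP at pH 7.4, 30° C for 20 min, 2% DMSO. Product captured on phosphocellulose and read by phosphorimager; apparent Ki from competitive or tight-binding fits, with Km for ATP determined.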

[2] = test system: Saos-2; assay: Inhibition of cell growth, MTT assay, Saos-2; type: cell-based; conditions: Homo sapiens; Saos-2, MTT assay
Method in brief: (§1)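 Cells rested 4 h after plating, then exposed to graded compound concentrations in 0.5% (v/v) DMSO for four to six days (cell-type dependent) at 37° C, 5% CO2. Viability was read by MTT (0.2 mg/mL final, 4 h at 37° C), with DMSO-solubilized formazan measured at 540 nm.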

[3] = target: T2, CDK2/cyclin A (Homo sapiens, UniProt P24941); assay: Inhibition of CDK2/cyclin A retinoblastoma kinase activity; type: biochemical; conditions: read-out: Ki CDK 2/A
T2 construct: made in house; host or cells: CDK2: insect cells (baculovirus); cyclin A: E. coli, then limited proteolysis
Method in brief: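 Baculovirus-expressed CDK2 with excess proteolyzed cyclin A (or purified complex), 150 nM or 5 nM, phosphorylating an Rb fragment with 25 μM [32/33P]ATP, pH 7.4, 30° C, 20 min. Filter-captured radioactivity by phosphorimager; apparent Ki from fits to competitive or tight-binding competitive inhibition using measured ATP Km.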

[4] = target: T3, complex of human CDK4 and genetically truncated (1-264) cyclin D3 (Homo sapiens, UniProt P11802); assay: Inhibition of CDK4/cyclin D retinoblastoma kinase activity (D-type cyclin is truncated D3); type: biochemical; conditions: superscript c: D-type cyclin is truncated D3; read-out: Ki CDK 4/D
T3 construct: made in house; host or cells: insect cells, co-infected with baculovirus
T3 sequence (P11802 whole entry, the tested form may be a part): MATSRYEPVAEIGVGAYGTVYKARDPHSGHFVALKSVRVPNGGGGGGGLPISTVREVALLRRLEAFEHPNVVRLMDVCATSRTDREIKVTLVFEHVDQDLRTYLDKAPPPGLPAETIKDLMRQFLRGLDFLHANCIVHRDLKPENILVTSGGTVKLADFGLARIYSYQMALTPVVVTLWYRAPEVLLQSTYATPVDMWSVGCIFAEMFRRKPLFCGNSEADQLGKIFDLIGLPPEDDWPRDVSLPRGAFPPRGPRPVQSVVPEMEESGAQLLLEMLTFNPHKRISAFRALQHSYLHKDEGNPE
T3 sequence (P30281 1-264 partner limits assumed): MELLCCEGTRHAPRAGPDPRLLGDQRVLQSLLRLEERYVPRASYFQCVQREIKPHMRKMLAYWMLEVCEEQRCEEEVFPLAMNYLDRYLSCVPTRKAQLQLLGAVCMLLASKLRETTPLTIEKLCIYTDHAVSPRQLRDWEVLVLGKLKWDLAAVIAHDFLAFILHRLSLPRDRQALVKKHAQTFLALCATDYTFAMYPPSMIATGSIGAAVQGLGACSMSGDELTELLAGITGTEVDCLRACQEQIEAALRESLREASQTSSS
Protocol: Cyclin-dependent kinase activity was measured by quantifying the enzyme-catalyzed, time-dependent incorporation of radioactive phosphate from [^32P]ATP or [^33P]ATP into a protein substrate. Unless noted otherwise, assays were performed in 96-well plates in a total volume of 50 μL, in the presence of 10 mM HEPES (N-[2-hydroxyethyl]piperazine-N′-[2-ethanesulfonic acid]) (pH 7.4), 10 mM MgCl2, 25 μM adenosine triphosphate (ATP), 1 mg/mL ovalbumin, 5 μg/mL leupeptin, 1 mM dithiothreitol, 10 mM β-glycerophosphate, 0.1 mM sodium vanadate, 1 mM sodium fluoride, 2.5 mM ethylene glycol-bis(β-aminoethyl ether)-N,N,N′N′-tetraacetic acid (EGTA), 2% (v/v) dimethylsulfoxide, and 0.03-0.4 μCi [^32/33P]ATP per reaction. Reactions were initiated with enzyme, incubated at 30° C., and terminated after 20 minutes by the addition of ethylenediaminetetraacetic acid (EDTA) to 250 mM. The phosphorylated substrate was then captured on a nitrocellulose or phosphocellulose membrane using a 96-well filtration manifold, and unincorporated radioactivity was removed by repeated washing with 0.85% phosphoric acid. Radioactivity was quantified by exposing the dried membranes to a phosphorimager.
Apparent Ki values were measured by assaying enzyme activity in the presence of different inhibitor compound concentrations and subtracting the background radioactivity measured in the absence of enzyme. The kinetic parameters (kcat, Km for ATP) were measured for each enzyme under the usual assay conditions by determining the dependence of initial rates on ATP concentration. Inhibition data were fit to an equation for competitive inhibition using Kaleidagraph (Synergy Software), or were fit to an equation for competitive tight-binding inhibition using the software KineTic (BioKin, Ltd.).
A complex of human CDK4 and cyclin D3, or a complex of cyclin D1 and a fusion protein of human CDK4 and gluathione-S-transferase (GST-CDK4), or a complex of human CDK4 and genetically truncated (1-264) cyclin D3, was purified using traditional biochemical chromatographic techniques from insect cells that had been co-infected with the corresponding baculovirus expression vectors (see e.g., Meijer and Kim, “Chemical Inhibitors of Cyclin-Dependent Kinases,” Methods in Enzymol,. vol. 283 (1997), pp. 113-128.). The enzyme complex (5 or 50 nM) was assayed with 0.3-0.5 μg of purified recombinant retinoblastoma protein fragment (Rb) as a substrate. The engineered Rb fragment (residues 386-928 of the native retinoblastoma protein; 62.3 kDa) contains the majority of the phosphorylation sites found in the native 106-kDa protein, as well as a tag of six histidine residues for ease of purification. Phosphorylated Rb substrate was captured by microfiltration on a nitrocellulose membrane and quantified using a phosphorimager as described above. For measurement of tight-binding inhibitors, the enzyme complex concentration was lowered to 5 nM, and the assay duration was extended to 60 minutes, during which the time-dependence of product formation was linear.

[5] = test system: HCT116; assay: Inhibition of cell growth, MTT assay, HCT116; type: cell-based, human; conditions: Homo sapiens, HCT-116
Method in brief: as §1

[6] = target: T4, complex of human CDK4 and cyclin D3 (Homo sapiens, UniProt P11802); assay: Inhibition of CDK4/cyclin D retinoblastoma kinase activity (D-type cyclin is D3); type: biochemical; conditions: superscript a: D-type cyclin is D3; apparent Ki; read-out: Ki CDK 4/D
T4 construct: made in house; host or cells: insect cells, co-infected with baculovirus
T4 sequence (P11802 whole entry): as the sequence (P11802 whole entry, the tested form may be a part) above
T4 sequence (P30281 whole entry partner): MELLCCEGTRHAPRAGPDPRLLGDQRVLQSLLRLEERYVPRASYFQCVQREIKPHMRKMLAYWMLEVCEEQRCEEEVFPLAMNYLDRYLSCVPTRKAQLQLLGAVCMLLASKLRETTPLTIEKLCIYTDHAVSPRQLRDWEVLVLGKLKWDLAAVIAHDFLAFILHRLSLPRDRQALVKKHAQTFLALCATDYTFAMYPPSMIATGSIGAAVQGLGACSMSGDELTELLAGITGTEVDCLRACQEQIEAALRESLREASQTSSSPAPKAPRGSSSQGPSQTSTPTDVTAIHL
Method in brief: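 Radiometric assay: [32P]- or [33P]ATP phosphate incorporation into Rb substrate at 30°C for 20 min, stopped with EDTA, filter-captured and phosphorimaged.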

[7] = test system: U2-OS; assay: Inhibition of cell growth, MTT assay, U2-OS; type: cell-based; conditions: Homo sapiens, U2OS
Method in brief: as §1

[8] = test system: phosphorylation of the retinoblastoma protein (pRb) in HCT-116 cells; assay: pRb immunoblotting (anti-Rb antibody); type: cell-based, human; conditions: five micromolar of each compound for 12 hours, western blot
Protocol: (§2) The ability of compounds to inhibit phosphorylation of the retinoblastoma protein (pRb) was assessed by western blot analysis. An anti-Rb antibody was used to measure the conversion of hyper-phosphorylated pRb to hypo-phosphorylated pRb.
(§3) Human colon tumor cells (HCT-116 cells; 5×10^6) were plated on […] dishes and allowed to grow overnight. Five micromolar of each compound was added for 12 hours. The cells were then collected and centrifuged. The cell pellets were lysed by the addition of 100 μL lysis buffer (50 mM HEPES (pH 7.0), 250 mM NaCl, 5 mM ethylenediaminetetraacetic acid, 0.1% Nonidet P-40, 1 mM dithiothreitol, 2 mM sodium pyrophosphate, 1 mM sodium orthovanadate, 1 μg/ml aprotonin, 1 μg/ml leupeptin, 50 μg/ml phenylmethylsulfonyl fluoride). Forty micrograms of protein were separated by sodium dodecyl sulfate-polyacrylamide gel electrophoresis (SDS-PAGE) on a 6% gel. The proteins were transferred to nitrocellulose and blocked with 5% blocking buffer in Tris-buffered saline overnight. The anti-Rb antibody (Pharmingen), the anti-phospho-Rb (Ser 780) antibody (MBL), and secondary antibody were incubated for 1 hour at room temperature followed by three wash steps in 0.01% Tween-20 in Tris-buffered saline. The Rb protein was detected using chemiluminescence according to the manufacturer (Amersham).

[9] = test system: pRb phosphorylation at serine 780 in HCT-116 cells; assay: pRb immunoblotting (anti-phospho-Rb (ser780) antibody); type: cell-based, human; conditions: five micromolar of each compound for 12 hours, western blot, anti-phospho-Rb (Ser 780) antibody
Protocol: as §2, §3

T1 sequence (P06493 whole entry): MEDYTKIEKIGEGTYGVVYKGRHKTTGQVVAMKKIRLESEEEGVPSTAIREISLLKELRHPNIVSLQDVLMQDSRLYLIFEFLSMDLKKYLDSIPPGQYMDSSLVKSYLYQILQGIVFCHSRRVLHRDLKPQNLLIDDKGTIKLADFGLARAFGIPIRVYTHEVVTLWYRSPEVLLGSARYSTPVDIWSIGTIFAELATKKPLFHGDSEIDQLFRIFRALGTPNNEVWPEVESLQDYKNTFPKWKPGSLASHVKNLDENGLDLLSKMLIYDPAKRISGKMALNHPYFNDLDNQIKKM
T1 sequence (P14635 whole entry partner): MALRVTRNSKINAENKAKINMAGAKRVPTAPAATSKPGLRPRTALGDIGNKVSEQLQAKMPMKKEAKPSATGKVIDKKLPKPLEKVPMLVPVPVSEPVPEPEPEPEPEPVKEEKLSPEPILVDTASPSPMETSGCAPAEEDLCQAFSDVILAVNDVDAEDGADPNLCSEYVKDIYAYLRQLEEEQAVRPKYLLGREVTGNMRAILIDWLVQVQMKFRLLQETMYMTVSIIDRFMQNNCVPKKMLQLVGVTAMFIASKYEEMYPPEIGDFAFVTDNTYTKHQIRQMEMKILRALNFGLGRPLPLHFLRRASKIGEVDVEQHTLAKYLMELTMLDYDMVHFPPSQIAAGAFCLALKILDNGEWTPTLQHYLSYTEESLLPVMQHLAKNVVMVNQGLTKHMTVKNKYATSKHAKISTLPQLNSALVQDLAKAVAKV

Row | SMILES | Ki [1] [µM] | IC50 [2] [µM] | IC90 [2] [µM] | Ki [3] [µM] | Ki [4] [µM] | IC50 [5] [µM] | IC90 [5] [µM] | Ki [6] [µM] | IC50 [7] [µM] | IC90 [7] [µM] | Inhibits pRb phosphorylation [8] | Inhibits pRb (ser 780) phosphorylation [9]
1 | Nc1nc(Nc2ccc(N3CCNCC3)cc2)sc1C(=O)c1c(F)cc(F)cc1F [J(3), [4-Amino-2-(4-piperazin-1-yl-phenylamino)-thiazol-5-yl]-(2,4,6-trifluoro-phenyl)-methanone] | 2 | 2.2 | 4.9 | 0.572 | 0.019 | 0.9 | 2.8 | 0.015 | 2.9 | 5.2 |  | 
2 | Cc1cc([N+](=O)[O-])sc1C(=O)c1sc(Nc2ccc(N3CCN(C)CC3)cc2)nc1N [C(94), {4-Amino-2-[4-(4-methyl-piperazin-1-yl)-phenylamino]-thiazol-5-yl}-(3-methyl-5-nitro-thiophen-2-yl)-methanone] | 1.41 | 2.2 | 5 | 1.04 |  | 1.3 | 3.1 | 0.041 | 3.4 | 6 | + | +
3 | Cc1ccsc1C(=O)c1sc(Nc2ccc(N(C)CCN(C)C)cc2)nc1N [C(117), (4-Amino-2-{4-[(2-dimethylamino-ethyl)-methyl-amino]-phenylamino}-thiazol-5-yl)-(3-methyl-thiophen-2-yl)-methanone] | 0.417 | 0.89 | 1.5 | 0.423 | 0.01 | 1.8 | 2.9 |  | 0.9 | 1.7 |  | 
4 | Nc1nc(Nc2ccc(S(N)(=O)=O)cc2)sc1C(=O)c1sc(Br)cc1Br [C(73), 4-[4-Amino-5-(3,5-dibromo-thiophene-2-carbonyl)-thiazol-2-ylamino]-benzenesulfonamide] | 0.02 | 1.3 | 5 | 0.0068 |  | 1.4 | 3.4 | 0.0063 | 4.1 | 9.5 | + | +
5 | C[C@@H]1CN(c2ccc(Nc3nc(N)c(C(=O)c4c(F)cccc4F)s3)cc2)CCN1C [C(124), {4-Amino-2-[4-(3R,4-dimethyl-piperazin-1-yl)-phenylamino]-thiazol-5-yl}-(2,6-difluoro-phenyl)-methanone] | 0.68 | 0.98 | 1.6 | 0.611 | 0.017 | 0.54 | 1.6 |  | 1.3 | 2.5 |  | 
6 | CC1(C)CN(c2ccc(Nc3nc(N)c(C(=O)c4c(F)cccc4F)s3)cc2)CCN1 [J(6), {4-Amino-2-[4-(3,3-dimethyl-piperazin-1-yl)-phenylamino]-thiazol-5-yl}-(2,6-difluoro-phenyl)-methanone] | 0.511 | 0.47 | 0.77 | 0.548 | 0.0081 | 0.26 | 0.6 |  | 0.51 | 1.3 |  | 
7 | COc1ccc(Nc2nc(N)c(C(=O)c3ccccc3C#N)s2)cc1 [F, 2-[4-Amino-2-(4-methoxy-phenylamino)-thiazole-5-carbonyl]-benzonitrile] | 0.2 | 1 | 1.6 | 0.35 |  | 1 | 2.6 | 0.0407 | 1 | 20 | − | −
8 | Nc1nc(Nc2ccc(S(N)(=O)=O)cc2)sc1C(=O)c1c(F)cc(F)cc1F [C(115), 4-[4-Amino-5-(2,4,6-trifluoro-benzoyl)-thiazol-2-yl-amino]-benzenesulfonamide] | 0.05 | 0.8 | 2.2 | 0.018 | 0.055 |  |  | 0.057 | 2.7 | 5 |  | 
9 | C[C@H]1CN(c2ccc(Nc3nc(N)c(C(=O)c4c(F)cccc4F)s3)cc2)CCN1C [C(125), {4-Amino-2-[4-(3S,4-dimethyl-piperazin-1-yl)-phenylamino]-thiazol-5-yl}-(2,6-difluoro-phenyl)-methanone] | 0.65 | 0.9 | 1.5 | 0.602 | 0.0054 | 0.62 | 1.8 |  | 1.2 | 2.3 |  | 
